According to patent publication US10010585B2, “Methods of treating vestibular schwannoma and reducing hearing or neurite loss caused by vestibular schwannoma” (Massachusetts Eye and Ear Infirmary, priority 2014, dated 2018):
Where “and” joins values, the source holds several entries; their conditions need not be identical. Equal entries are not always repeated.

Assays:
[1] = tested on: sporadic VS; settings: retrospective study, serial MRI scans (Kandathil et al., 2014); cited from earlier work
[2] = tested on: COX-2; settings: 5 mM, 48 hours, VS culture media
Method: Prostaglandin (PTG) E2 was assayed in the media of VS cultures using the Prostaglandin E2 Parameter Assay Kit (R&D Systems, KGE004B). The media was collected after 48 hours of treatment from non-treated and treated cultured cells. Manufacturer's instructions were closely followed.
(§1) The cultures were incubated with the drugs for 48 hours. To label proliferating cells, BrdU was added 20 hours before fixation. pH was measured in the media after drug addition to ensure no significant deviations.

[3] = tested on: primary VS cells; assay: TUNEL cell death assay in primary VS cultures; assay type: cell-based, human; settings: 48 hours
Method: Rate of apoptosis in 6 VS cultures was assessed and correlated with tumor growth in vivo and tumor volume. […] Apoptosis was measured using terminal deoxynucleotidyl transferase dUTP nick end labeling (TUNEL, Roche Applied Sciences, NY) following manufacturer's instructions. Briefly, immunofluorescence protocol was followed as described under ‘Immunofluorescence,’ until fixations, then the cells were washed with PBS thrice and incubated in 1% Triton-X for 10 minutes on shaker. The cells were washed with PBS once and incubated in TUNEL mix for 1 hour at 37° C., then for 30 minutes at RT on shaker. The cells were then incubated in rhodamine phalloidin (Life Technologies, NY, 1:40) and Hoechst stain for 20 minutes, washed with PBS thrice and mounted onto slides for imaging. TUNEL and Hoechst stained nuclei were counted in >3 fields and the ratio of TUNEL positive to Hoechst positive nuclei was used to determine apoptosis rate in vitro. A positive control of 10 minutes-DNAse (Roche Applied Sciences, NY) treatment prior to TUNEL labeling was utilized.
For siRNA treatment, cultured primary VS cells or HEI-193 cells were placed in antibiotic and serum free media overnight. The next day, the cells were incubated with Life Technologies siRNAs targeting NF-κB genes RELA and NF-κB1, with control cells being treated with vehicle only (Lipofectamine RNAiMax), for 5 days. Some cultures were also incubated with a fluorescent random Oligo (Life Technologies) along with vehicle to assess transfection efficiency. siRNA experiments were performed in antibiotic and serum free media.
BAY11 or curcumin, diluted in 100% DMSO, were mixed to the accurate concentrations in warmed media and applied to the cultures (with DMSO concentration in media being 1% maximum), alongside a no-treatment control receiving media alone with appropriate corresponding DMSO levels.
After 48 hours of treatment, primary VS and Schwann cultures were fixed for BrdU staining, to visualize proliferation, or TUNEL staining, to visualize cell death.
After 48 hours of treatment with salicylates, primary VS and SC cultures were fixed for BrdU staining, to visualize proliferation, or TUNEL staining, to visualize cell death.

[4] = tested on: primary SCs; assay: BrdU proliferation assay in primary Schwann cell cultures; assay type: cell-based, human; settings: 48 hours
Method: (§2) Proliferation rate of 12 VS cultures was assessed and correlated with the tumor volume in the latest gadolinium enhanced T1-weighted MRI scan prior to surgical resection, and with tumor growth in vivo, measured as changes in the tumor's volume over time calculated from serial MRI scans. Tumor growth was standardized by dividing the growth rate by the initial tumor volume. Separate analyses were performed for solid tumors, which generally account for approximately 96% of VSs (Charabi et al., 1994), versus all studied tumors, which included 4 out of 13 total tumors with a visible cystic component, because cystic components could misrepresent true tumor volume (Charabi et al., 1994). To determine the level of cell proliferation in the cultures, Bromodeoxyuridine (BrdU) was added to the cells at a concentration of 10 μg/ml 20 hours before the cells were fixed. The cells were kept in the dark after the addition of BrdU Immunofluorescence protocol was followed as described under ‘Immunofluorescence,’ and cell and nuclear membranes were permeablized by incubation in 1% Triton-X for 10 minutes and by incubation in 2N Hydrochloric acid for 20 minutes, respectively, after fixation. Primary antibody against BrdU (AbD Serotec, NC, 1:200) and anti-rat IgG (Life Technologies, NY, 1:1000) were used. BrdU- and Hoechst-stained nuclei were counted in 3-5 fields and the ratio of BrdU positive to Hoechst positive nuclei was used to determine the proliferation rate in vitro.
(§3) Cultured human primary VS cells, primary SCs and HEI-193 cells were treated with NF-κB inhibitors BAY11-7082 (BAY11) or curcumin for 48 hours (Santa Cruz Biotechnology). BAY11 or curcumin, diluted in 100% DMSO, were mixed to the accurate concentrations in warmed media and applied to the cultures (with DMSO concentration in media being 1% maximum), alongside a no-treatment control receiving media alone with appropriate corresponding DMSO levels. Experiments were performed in media fortified with antibiotics and serum (same formulation as described in Example 1 for culturing cells).
(§4) After 48 hours of treatment, primary VS and Schwann cultures were fixed for BrdU staining, to visualize proliferation, or TUNEL staining, to visualize cell death. The same methodology as described in Example 1 was utilized. Cleaved caspase 3 staining, another apoptosis marker to reinforce findings using TUNEL, was conducted using an antibody against cleaved caspase 3 following the ‘immunofluorescence’ protocol outlined in Example 1.
as §1
(§5) After 48 hours of treatment with salicylates, primary VS and SC cultures were fixed for BrdU staining, to visualize proliferation, or TUNEL staining, to visualize cell death. The same methodology as described in Example 1 was utilized.

[5] = tested on: primary VS cells; assay: BrdU proliferation assay in primary VS cultures; assay type: cell-based, human; settings: 48 hours
Method: as §2, with “vitro. […]” for “vitro.”
as §3, §4, §1, §5
To understand cross-talk between HGF and VEGF-A pathway, cultured VS cells were incubated with Life Technologies silencer select siRNAs targeting VEGFA (s461) or MET (s8700). To understand whether HGF signaling contributed to VS proliferation, cultured VS cells were treated with MET inhibitor SU11274 (Sigma-Aldrich, MO, #S9820). Seventy-two hours after siRNA treatment or 12 hours after treatment with SU11274 (2 μM), cells were incubated with 10 μg/mL BrdU (Life Technologies, NY, # B23151) for 20 hours before fixation.

[6] = tested on: cochlear explant cultures (hair cells and neurites); assay: Murine cochlear explant culture, hair cell, neurite and fiber damage counts; assay type: cell-based, CBA/CaJ mice; settings: for number of IHCs per 100 μm length / number of OHCs / number of neurites / severity of fiber disorganization / damage: recombinant human protein 5 μg/mL, 48 hours; for severity of fiber disorganization / damage: scale 0 to 2
Excerpt: To develop an animal model to study hearing loss due to VS, cochlear explant cultures were established from postnatal CBA/CaJ mice aged P3-P5 (Jackson Laboratory, ME). Briefly, after decapitating the mouse, temporal bones were dissected from the skull in Hank's Balanced Salt Solution (Life Technologies, NY). The otic capsule encasing the cochlea was dissected out from each temporal bone. The otic capsule was carefully stripped away and the spiral ligament was peeled away from the entire cochlea, starting from the base. The basal turn of cochlea was then isolated using the dissecting knife (Fine Science Tools, CA), discarding the apical turn hook region. The tectorial membrane and the Reissner's membrane were removed, leaving the organ of Corti intact with the spiral ganglion neuron region. This explant was cultured onto a 10 mm glass coverslip coated with CellTak (BD Biosciences, CA, #354241) in a 35 mm culture dish with 4 wells. Cells were cultured in 98% DMEM, 1% ampicillin and 1% N2 supplement.
To assess FGF2's otoprotective effect, cochlear explant cultures were treated with recombinant human FGF2±gentamicin. After culturing the explants overnight, media fortified with FGF2 (100 ng/mL) was applied. Twenty-four hours later media fortified with gentamicin (1 mM) and FGF2 (100 ng/mL) was applied. […] Cochlear explants were fixed after an additional 24 hours of treatment, with total time being 48 hours.
After treatment, the explants were fixed and stained with antibodies against myosin 7A (Myo7A, Proteus Biosciences, CA) and β-tubulin (Tuj1, Covance, MA) to identify hair cells (HCs) and neurons, respectively. The same immunofluorescence protocol as described in Example 1 was used, with the exceptions of omission of […] HCl incubation, usage of 5% NHS with 1% Triton-X for blocking solution and 1% NHS with 0.4% Triton-X solution for primary antibody incubation at room temperature (RT). Secondary antibodies (Alexa Flour 555 anti-mouse and Alexa Four 488 anti-rabbit) were purchased from Life Technologies. Cochlear explants were imaged using a Leica TCS SP5 Confocal microscope. Zoomed-in pictures for the region of organ of Corti, including neurites, were merged in a z-stack to obtain a z-axis projection image in the Leica software. The number of hair cells (HCs) and neurites were manually counted per 100 μm length along the cochlea, with 1-2 samplings per specimen.
The same general methodology for murine cochlear explant cultures as described in Example 5 was utilized. Cochlear explant cultures were established from P2-P3 mice. Importantly, instead of only culturing the basal turn, the apical turn was also isolated, providing two pieces per cochlea with a greater frequency range. After approximately 12 hours, the cochlear explant cultures were treated for 48 hours with tumor secretions diluted to half their concentration. The formulation was 46.5% tumor-conditioned DMEM, 46.5% plain DMEM, 5% FBS, 1% ampicillin and 1% N2 supplement. Cochlear explants were treated with control media in parallel, being 46.5% DMEM incubated without tumor, 46.5% plain DMEM, 5% FBS, 1% ampicillin and 1% N2 supplement. All reagents were purchased from Life Technologies, NY. Osmolality in the solutions was measured in samples using a vapor-pressure osmometer (standardized with 290 mOsm/kg of 0.1567M sodium chloride solution) before applying them onto cochlear explants. Extra formulation for each VS secretion was made to be tested on Milliplex arrays and ELISA. Milliplex array, containing FGF2, VEGF-A and HGF beads (Millipore) and human TNFα ELISA (R&D Systems) were conducted as directed by the manufacturer on VS secretions prior to being applied onto the cochlear explant cultures.
Cochlear explants were fixed 48 hours after treatment and the same methodology for VS secretion application as described in Example 5 was utilized. […]

[7] = tested on: rat cochlear explants; settings: 1 mM (Zheng and Gao, 1996); cited from earlier work
[8] = tested on: HGF; assay: Mouse HGF ELISA on cochlear explants; assay type: cell-based; settings: recombinant human protein 5 μg/mL, 48 hours; control 48.1±17.0
Method: Recombinant human VEGF-A (R&D Systems), diluted in culture media to a 5 μg/mL concentration, was applied to cochlear explants for 48 hours. The explants were fixed and the same protocol as outlined previously was followed (Example 6). […] Plain media with neutralization VEGF-A antibody and VS secretions incubated with only goat IgGs (R&D Systems, MN) were prepared simultaneously as controls. Success of VEGF-A neutralization was confirmed using ELISA.
Human VEGF-A ELISA and mouse HGF ELISA kits were purchased from R&D systems and manufacturer's protocols were followed.

## CC(=O)Oc1ccccc1C(=O)O [aspirin]
[1]
  probability of VS growth in comparison to VS patients not taking aspirin: approximately half
[2]
  secreted PTG levels, of NT cells: 3.1%
[3]; 1 mM
  cell death rate: 0.6±0.3%
[3]; 5 mM
  cell death rate: 2.8±2.2%
[4]; 1 mM
  normalized proliferation rate, of the NT cells: 124.4±72.9%
[4]; 5 mM
  proliferation, of the NT cells: 198.1±141.3%
[5]; 1 mM
  proliferation, of the NT cells: 129.6±26.2%
[5]; 5 mM
  proliferation, of the NT cells: 19% and 19.3±5.5%

## gentamicin
[6]; 1 mM gentamicin, basal turn, NT 13.1±1.7
  number of neurites per 100 μm: 7.3±2.3 per 100 μm
[6]; 1 mM gentamicin, basal turn, NT 49.1±8.7
  total number of HCs per 100 μm length: 10.4±7.0 per 100 μm
[7]
  HC loss: almost complete HC loss
  neurites lost: 25%

## TNFα
[6]; apical turn
  number of IHCs per 100 μm length: 13.2±1.0 per 100 μm
  number of OHCs: 39.1±2.2 per 100 μm
  number of neurites: 14.3±2.9 per 100 μm
  severity of fiber disorganization / damage: 0.2±0.5
[6]; basal turn
  number of IHCs per 100 μm length: 12.1±2.8 per 100 μm
  number of OHCs: 31.8±14.9 per 100 μm
  number of neurites: 11.3±2.4 per 100 μm
  severity of fiber disorganization / damage: 0.8±0.4
[8]
  secreted HGF levels in cochlear explants: did not lead to changes
